PMC9219098 (ACS Omega, 2022)
Where two headings read alike, the source gives them in different places.

Target: AChE (Homo sapiens, UniProt P22303)
Assay: In vitro AChE enzyme assay
Assay type: biochemical

Sequence of AChE (P22303 32-614): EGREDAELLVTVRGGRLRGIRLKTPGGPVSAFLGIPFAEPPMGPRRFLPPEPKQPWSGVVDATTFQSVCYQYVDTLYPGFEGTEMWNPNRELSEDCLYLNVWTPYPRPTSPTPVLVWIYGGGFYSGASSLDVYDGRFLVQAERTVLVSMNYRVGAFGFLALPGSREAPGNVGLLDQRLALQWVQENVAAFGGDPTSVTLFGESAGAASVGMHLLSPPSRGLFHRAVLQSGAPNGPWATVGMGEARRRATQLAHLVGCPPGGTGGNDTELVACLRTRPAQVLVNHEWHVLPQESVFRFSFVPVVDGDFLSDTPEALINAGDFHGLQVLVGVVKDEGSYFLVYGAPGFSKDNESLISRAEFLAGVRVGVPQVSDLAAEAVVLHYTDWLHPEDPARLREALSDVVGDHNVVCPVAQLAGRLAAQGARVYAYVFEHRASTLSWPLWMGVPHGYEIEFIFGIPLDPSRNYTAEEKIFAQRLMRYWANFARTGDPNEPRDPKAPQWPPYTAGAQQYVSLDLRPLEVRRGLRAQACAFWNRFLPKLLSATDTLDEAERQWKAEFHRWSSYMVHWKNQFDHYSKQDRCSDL

Structure (SMILES)	IC50 [µM]	IC50 (Ellman method, ACTI substrate, mean ± SD, triplicate) [µM]
CC(=O)C=Cc1ccc(C(F)(F)F)cc1 [CHEMBL74630, 1-[4-(trifluoromethyl)phenyl]but-1-en-3-one]	26.3 ± 2.18	–
Cc1cccc(C(=O)C(F)(F)F)c1 [CHEMBL86868, 3′-methyl-2,2,2-trifluoroacetophenone, reference compound]	0.35 ± 0.03	–
O=C(c1ccccc1)C(F)(F)F [CHEMBL293277, trifluoroacetophenone]	4.61 ± 0.34	–
COC(F)(F)C(F)(F)C(F)(F)C(F)(F)F [CHEMBL500823, methyl nonafluorobutyl ether]	–	52.6 ± 4.14
FC(F)(F)C(F)(F)C(F)(F)C(F)(F)C(F)(F)C(F)(F)F [CHEMBL1200607, perflexane]	50.7 ± 3.73	–
